Measurements taken from US10118902B2 (Sanford Burnham Prebys Medical Discovery Institute, priority 2014, dated 2018).

target: neurotensin receptor 1 (NTR1) (Homo sapiens (Human), UniProt P30989); assay: NTR1 dose response, high-content imaging beta-arrestin-GFP assay in NTR1-U2OS cells; type: cell-based; details: read-out: EC50
Sequence (P30989 whole entry, species assumed): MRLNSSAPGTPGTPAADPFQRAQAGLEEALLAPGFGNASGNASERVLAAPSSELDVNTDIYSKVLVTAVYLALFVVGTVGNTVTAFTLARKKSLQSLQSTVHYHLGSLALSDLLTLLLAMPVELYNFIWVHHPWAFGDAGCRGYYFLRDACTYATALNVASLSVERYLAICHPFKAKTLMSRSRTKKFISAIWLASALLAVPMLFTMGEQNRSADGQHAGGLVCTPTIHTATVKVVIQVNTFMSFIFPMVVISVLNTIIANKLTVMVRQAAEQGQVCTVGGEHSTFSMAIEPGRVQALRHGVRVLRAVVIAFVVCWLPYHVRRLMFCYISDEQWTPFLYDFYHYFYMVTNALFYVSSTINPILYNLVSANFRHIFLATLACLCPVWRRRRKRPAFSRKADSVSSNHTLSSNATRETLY

EC50	SMILES
> 10000 nM	CCCN(C)c1ccc2nc(C3CC3)nc(N3CCC(c4ccccc4OC)CC3=O)c2c1 (centres unmarked) [Example 102, 1-[2-cyclopropyl-6-(methyl-propyl-amino)-quinazolin-4-yl]-4-(2-methoxy-phenyl)-piperidin-2-one]
< 500 nM	COc1ccccc1C1CCN(c2nc(C3CC3)nc3ccc(N(C)CCO)c(Cl)c23)CC1 [Example 103, 2-({5-chloro-2-cyclopropyl-4-[4-(2-methoxy-phenyl)-piperidin-1-yl]-quinazolin-6-yl}-methyl-amino)-ethanol]
> 10000 nM	CCCN(C)c1cc2c(N3CCC(c4ccccc4OC)CC3)nc(C3CC3)nc2cc1Cl [Example 104, {7-chloro-2-cyclopropyl-4-[4-(2-methoxy-phenyl)-piperidin-1-yl]-quinazolin-6-yl}-methyl-propyl-amine]
2000 to 10000 nM	CCCN(C)c1cc2c(N3CCC(c4ccccc4OC)CC3)nc(C3CC3)nc2cc1F [Example 105, {2-cyclopropyl-7-fluoro-4-[4-(2-methoxy-phenyl)-piperidin-1-yl]-quinazolin-6-yl}-methyl-propyl-amine]
> 10000 nM	CCCN(C)c1cc2c(N3CCC(c4ccccc4N4CCC4)CC3)nc(C3CC3)nc2cc1F [Example 106, {4-[4-(2-azetidin-1-yl-phenyl)-piperidin-1-yl]-2-cyclopropyl-7-fluoro-quinazolin-6-yl}-methyl-propyl-amine]
500 to 2000 nM	COc1ccccc1C1CCN(c2nc(C3CC3)nc3cc(Cl)c(N(C)CCO)cc23)CC1 [Example 107, 2-({7-chloro-2-cyclopropyl-4-[4-(2-methoxy-phenyl)-piperidin-1-yl]-quinazolin-6-yl}-methyl-amino)-ethanol]
500 to 2000 nM	COc1cc(F)ccc1C1CCN(c2nc(C3CC3)nc3ccc(N(C)CCO)cc23)CC1 [Example 108, 2-({2-cyclopropyl-4-[4-(4-fluoro-2-methoxy-phenyl)-piperidin-1-yl]-quinazolin-6-yl}-methyl-amino)-ethanol]
500 to 2000 nM	COc1ccc(F)cc1C1CCN(c2nc(C3CC3)nc3ccc(N(C)CCO)cc23)CC1 [Example 109, 2-({2-cyclopropyl-4-[4-(5-fluoro-2-methoxy-phenyl)-piperidin-1-yl]-quinazolin-6-yl}-methyl-amino)-ethanol]
500 to 2000 nM	COc1cc(F)ccc1C1CCN(c2nc(C3CC3)nc3cc(F)c(N(C)CCO)cc23)CC1 [Example 110, 2-({2-cyclopropyl-7-fluoro-4-[4-(4-fluoro-2-methoxy-phenyl)-piperidin-1-yl]-quinazolin-6-yl}-methyl-amino)-ethanol]
500 to 2000 nM	COc1ccc(F)cc1C1CCN(c2nc(C3CC3)nc3cc(F)c(N(C)CCO)cc23)CC1 [Example 111, 2-({2-cyclopropyl-7-fluoro-4-[4-(5-fluoro-2-methoxy-phenyl)-piperidin-1-yl]-quinazolin-6-yl}-methyl-amino)-ethanol]
> 10000 nM	COc1cc(F)ccc1C1CCN(c2nc(C3CC3)nc3cc(Cl)c(N(C)CCO)cc23)CC1 [Example 112, 2-({7-chloro-2-cyclopropyl-4-[4-(4-fluoro-2-methoxy-phenyl)-piperidin-1-yl]-quinazolin-6-yl}-methyl-amino)-ethanol]
2000 to 10000 nM	COc1ccc(F)cc1C1CCN(c2nc(C3CC3)nc3cc(Cl)c(N(C)CCO)cc23)CC1 [Example 113, 2-({7-chloro-2-cyclopropyl-4-[4-(5-fluoro-2-methoxy-phenyl)-piperidin-1-yl]-quinazolin-6-yl}-methyl-amino)-ethanol]
2000 to 10000 nM	COc1cc(F)ccc1C1CCN(c2nc(C3CC3)nc3cc(C)c(N(C)CCO)cc23)CC1 [Example 114, 2-({2-cyclopropyl-4-[4-(4-fluoro-2-methoxy-phenyl)-piperidin-1-yl]-7-methyl-quinazolin-6-yl}-methyl-amino)-ethanol]
2000 to 10000 nM	COc1ccc(F)cc1C1CCN(c2nc(C3CC3)nc3cc(C)c(N(C)CCO)cc23)CC1 [Example 115, 2-({2-cyclopropyl-4-[4-(5-fluoro-2-methoxy-phenyl)-piperidin-1-yl]-7-methyl-quinazolin-6-yl}-methyl-amino)-ethanol]
500 to 2000 nM	Cc1cc2nc(C3CC3)nc(N3CCC(c4ccccc4N(C)C)CC3)c2cc1N(C)CCO [Example 116, 2-({2-cyclopropyl-4-[4-(2-dimethylamino-phenyl)-piperidin-1-yl]-7-methyl-quinazolin-6-yl}-methyl-amino)-ethanol]
< 500 nM	COc1ccccc1C1CCN(c2nc(C3CC3)nc3cc(C)c(N(C)CCO)cc23)CC1 [Example 117, 2-({2-cyclopropyl-4-[4-(2-methoxy-phenyl)-piperidin-1-yl]-7-methyl-quinazolin-6-yl}-methyl-amino)-ethanol]
2000 to 10000 nM	CN(C)c1ccccc1C1CCN(c2nc(C3CC3)nc3cc(Cl)c(N(C)CCO)cc23)CC1 [Example 118, 2-({7-chloro-2-cyclopropyl-4-[4-(2-dimethylamino-phenyl)-piperidin-1-yl]-quinazolin-6-yl}-methyl-amino)-ethanol]
2000 to 10000 nM	CN(CCO)c1cc2c(N3CCC(c4ccccc4N4CCC4)CC3)nc(C3CC3)nc2cc1Cl [Example 119, 2-({4-[4-(2-azetidin-1-yl-phenyl)-piperidin-1-yl]-7-chloro-2-cyclopropyl-quinazolin-6-yl}-methyl-amino)-ethanol]

EC50	SMILES
< 500 nM	CN(C)c1ccccc1C1CCN(c2nc(C3CC3)nc3cc(F)c(N(C)CCO)cc23)CC1 [Example 120, 2-({2-cyclopropyl-4-[4-(2-dimethylamino-phenyl)-piperidin-1-yl]-7-fluoro-quinazolin-6-yl}-methyl-amino)-ethanol]
500 to 2000 nM	Cc1cc2nc(C3CC3)nc(N3CCC(c4ccccc4N4CCC4)CC3)c2cc1N(C)CCO [Example 121, 2-({4-[4-(2-azetidin-1-yl-phenyl)-piperidin-1-yl]-2-cyclopropyl-7-methyl-quinazolin-6-yl}-methyl-amino)-ethanol]
500 to 2000 nM	CCCN(C)c1cc2c(N3CCC(c4ccccc4OC)CC3)nc(C3CC3)nc2cc1C [Example 122, {2-cyclopropyl-4-[4-(2-methoxy-phenyl)-piperidin-1-yl]-7-methyl-quinazolin-6-yl}-methyl-propyl-amine]
> 10000 nM	CCCN(C)c1cc2c(N3CCC(c4cc(F)ccc4OC)CC3)nc(C3CC3)nc2cc1C [Example 123, {2-cyclopropyl-4-[4-(5-fluoro-2-methoxy-phenyl)-piperidin-1-yl]-7-methyl-quinazolin-6-yl}-methyl-propyl-amine]
< 500 nM	COc1ccccc1C1CCN(c2nc(C3CC3)nc3c(C)cc(N(C)CCO)cc23)CC1 [Example 125, 2-({2-cyclopropyl-4-[4-(2-methoxy-phenyl)-piperidin-1-yl]-8-methyl-quinazolin-6-yl}-methyl-amino)-ethanol]
500 to 2000 nM	COc1ccccc1C1CCN(c2nc(C3CC3)nc3ccc(N(C)CCO)c(C)c23)CC1 [Example 126, 2-({2-cyclopropyl-4-[4-(2-methoxy-phenyl)-piperidin-1-yl]-5-methyl-quinazolin-6-yl}-methyl-amino)-ethanol]
> 10000 nM	CCCN(C)c1cccc2c(N3CCC(c4ccccc4OC)CC3)nc(C3CC3)nc12 [Example 128, {2-cyclopropyl-4-[4-(2-methoxy-phenyl)-piperidin-1-yl]-quinazolin-8-yl}-methyl-propyl-amine]
> 10000 nM	COc1ccccc1C1CCN(c2nc(C3CC3)nc3c(N(C)CCN4CCOCC4)cccc23)CC1 [Example 129, {2-cyclopropyl-4-[4-(2-methoxy-phenyl)-piperidin-1-yl]-quinazolin-8-yl}-methyl-(2-morpholin-4-yl-ethyl)-amine]
< 500 nM	COc1ccccc1C1CCN(c2nc(C3CC3)nc3c(Cl)cc(N(C)CCO)cc23)CC1 [Example 130, 2-({8-chloro-2-cyclopropyl-4-[4-(2-methoxy-phenyl)-piperidin-1-yl]-quinazolin-6-yl}-methyl-amino)-ethanol]
2000 to 10000 nM	CCCN(C)c1cccc2nc(C3CC3)nc(N3CCC(c4ccccc4OC)CC3)c12 [Example 131, {2-cyclopropyl-4-[4-(2-methoxy-phenyl)-piperidin-1-yl]-quinazolin-5-yl}-methyl-propyl-amine]
500 to 2000 nM	COc1ccccc1C1CCN(c2nc(C3CC3)nc3ccc(N(C)CCO)c(F)c23)CC1 [Example 132, 2-((2-cyclopropyl-5-fluoro-4-(4-(2-methoxyphenyl)piperidin-1-yl)quinazolin-6-yl)(methyl)amino)ethanol]
< 500 nM	COc1ccccc1C1CCN(c2nc(C3CC3)nc3c(F)cc(N(C)CCO)cc23)CC1 [Example 133, 2-((2-cyclopropyl-8-fluoro-4-(4-(2-methoxyphenyl)piperidin-1-yl)quinazolin-6-yl)(methyl)amino)ethanol]
500 to 2000 nM	COc1ccccc1C1CCN(c2nc(C3CC3)nc3cnc(N(C)CCN4CCOCC4)cc23)CC1 [Example 134, 2-cyclopropyl-4-(4-(2-methoxyphenyl)piperidin-1-yl)-N-methyl-N-(2-morpholinoethyl)pyrido[3,4-d]pyrimidin-6-amine]
> 10000 nM	CCCN(C)c1ccc2c(N3CCC(c4ccccc4OC)CC3)nc(C3CC3)nc2c1 [Example 135, 2-cyclopropyl-4-(4-(2-methoxyphenyl)piperidin-1-yl)-N-methyl-N-propylquinazolin-7-amine]
2000 to 10000 nM	COc1ccccc1C1CCN(c2nc(C#CC3CC3)nc3ccc(N(C)CCO)cc23)CC1 [Example 136, 2-((2-(cyclopropylethynyl)-4-(4-(2-methoxyphenyl)piperidin-1-yl)quinazolin-6-yl)(methyl)amino)ethanol]
< 500 nM	COc1ccccc1C1CCN(c2nc(C3CC3)nc3cnc(N(C)CCO)cc23)CC1 [Example 137, 2-({2-cyclopropyl-4-[4-(2-methoxy-phenyl)-piperidin-1-yl]-pyrido[3,4-d]pyrimidin-6-yl}-methyl-amino)-ethanol]
500 to 2000 nM	COc1ccsc1C1CCN(c2nc(C3CC3)nc3ccc(N(C)CCO)cc23)CC1 [Example 138, 2-((2-cyclopropyl-4-(4-(3-methoxythiophen-2-yl)piperidin-1-yl)quinazolin-6-yl)(methyl)amino)ethanol]
